Laboratory results: PMC8589628, “Characterization and Antimicrobial Studies of Iturin-Like and Bogorol-Like Lipopeptides From Brevibacillus spp. Strains GI9 and SKDU10” (Frontiers in Microbiology, 2021)

How the values were obtained:
[1] = system: C. albicans MTCC 183; test: MIC, microtiter plate dilution assay; type: cell-based, Candida albicans; conditions: YMB, 5 × 10^5 CFU/ml, 37°C, OD 600 nm after 48 h
Protocol: (§1) The antimicrobial activity of HPLC purified compounds was determined against various test strains including S. aureus MTCC 1430, Vibrio cholera MTCC 3904, Bacillus subtilis MTCC 121, Listeria monocytogenes MTCC 839, C. albicans MTCC 183, C. albicans MTCC 1637, C. albicans MTCC 227, C. tropicalis MTCC 184, C. glabrata MTCC 3019, and C. inconspicua MTCC 1074. Antimicrobial activity was also tested against clinical Candida strains and phytopathogenic fungi viz. Fusarium moniliforme MTCC 158, Alternaria brassicicola MTCC 2102 and Colletotrichum acutatum MTCC 1037. Bacterial and Candida test strains were grown in NB and yeast malt broth (YMB), respectively. Fungal test strains were grown in potato dextrose broth (PDB). Minimum inhibitory concentrations (MICs) of purified compounds were evaluated against test organisms by using a microtiter plate dilution assay. Mid-log-phase test strains (5 × 10^5 CFU/ml) were incubated in a 96-well plate with different concentrations of the lipopeptides for 24–48 h at 37°C (final volume of 200 μl). OD was measured at 600 nm after 24 and 48 h for bacteria and yeast, respectively, using an ELISA microplate reader (Thermo Scientific, United States). MIC against phytopathogenic fungi was determined using the 96-well microtiter plate method ([Sharma et al., 2020]).

[2] = system: C. albicans MTCC 227; test: MIC, microtiter plate dilution assay; type: cell-based, Candida albicans; conditions: YMB, 5 × 10^5 CFU/ml, 37°C, OD 600 nm after 48 h
Protocol: as §1

[3] = system: C. albicans MTCC 1637; test: MIC, microtiter plate dilution assay; type: cell-based, Candida albicans; conditions: YMB, 5 × 10^5 CFU/ml, 37°C, OD 600 nm after 48 h
Protocol: as §1

[4] = system: C. krusei 440009; test: MIC, microtiter plate dilution assay, clinical strain; type: cell-based; conditions: YMB, 37°C, OD 600 nm after 48 h
Protocol: (§2) Brevibacillus sp. strains GI-9 and SKDU10 were known to produce class IId bacteriocins identified as laterosporulins a ([Singh et al., 2012]; [Baindara et al., 2016]). Both strains were grown on nutrient agar (NA, Himedia, India). All test strains used in this study were obtained from Microbial Type Culture Collection and Gene bank (MTCC), Chandigarh, India. Clinical Candida strains were obtained from the National Culture Collection of Pathogenic Fungi (NCCPF), PGIMER, Chandigarh, India, and all strains were grown on recommended media.
as §1

[5] = system: C. parapsilosis 450030; test: as above; type: cell-based; conditions: YMB, 37°C, OD 600 nm after 48 h
Protocol: as §2, §1

[6] = system: C. rugosa 470141; test: as above; type: cell-based; conditions: YMB, 37°C, OD 600 nm after 48 h
Protocol: as §2, §1

[7] = system: C. acutatum MTCC1037; test: MIC against phytopathogenic fungi, 96-well microtiter plate method; type: cell-based, Colletotrichum acutatum; conditions: PDB
Protocol: as §1

[8] = system: C. inconspicua MTCC 1074; test: MIC, microtiter plate dilution assay; type: cell-based; conditions: YMB, 5 × 10^5 CFU/ml, 37°C, OD 600 nm after 48 h
Protocol: as §1

Dhb-Tyr-Orn-Ile-Val-Val-Lys-Val-Leu-Asp-Val-Glu [BLL, bogorol like lipopeptide purified from Brevibacillus sp. strain SKDU10; 12 amino acids and C17 hydroxy fatty acid side chain]
MIC value [1]: 150 to 170 µg/mL | MIC value [2]: 300 to 310 µg/mL | MIC value [3]: 250 to 260 µg/mL | MIC value [4]: 240 to 250 µg/mL | MIC value [5]: 290 to 310 µg/mL | MIC value [6]: 240 to 250 µg/mL | MIC value [7]: 430 to 450 µg/mL | MIC value [8]: 100 to 110 µg/mL
